These results are taken from patent publication US8980888B2, “Pyrazole derivative” (Mochida Pharmaceutical Co., Ltd., priority 2013, dated 2015).

The target of assay [1] is T1, Human PDE10 (Homo sapiens, UniProt Q9Y233).
T1 construct: purchased BPA Bioscience (so in the source)
Description: Human PDE10 inhibitory effect (IMAP TR-FRET enzyme inhibition assay). The class given is biochemical. The following applies: PDE10 inhibitory activity, cAMP substrate. The method, then: (Evaluation of Enzyme Inhibitory Activity: Human PDE10 Inhibitory Effect)
IMAP TR-FRET Phosphodiersterase Evaluation Assay Kit (Molecular Device) was used for the measurement. Ten μL of a diluted test compound having each concentration and 5 μL of the enzyme PDE10 (BPA Bioscience) that had been diluted to 2 ng/mL with 1×IMAP Reaction Buffer (prepared with 5× included with the kit, 10 mM Tris-HCl, pH=7.2, 10 mM MgCl2, 0.05% NaN3, and 0.1% BSA) containing 0.1% BSA were added to a 384-well plate (Corning). The obtained mixture was then pre-incubated at room temperature for 5 minutes. Thereafter, 5 μL of cAMP substrate solution which was included with the kit and diluted to 400 nM with 1×IMAP Reaction Buffer containing 0.1% BSA, was added to the reaction solution, and the obtained mixture was reacted at room temperature for 60 minutes. Thereafter, 60 μL of an IMAP TR-FRET Binding solution included with the kit was further added to the reaction solution, and the obtained mixture was then left for 3 hours or more. Subsequently, using ARVO SX (PerkinElmer), the fluorescent intensity of Terbium (Emission=490 nm) and TR-FRET (Emission=520 nm) in the reaction solution were measured at an excitation wavelength of 340 nm, so as to calculate the amount of the generated 5′-AMP. The count of a well to which a solvent had been added instead of the test compound was set at 0%, and the count of a well to which the enzyme PDE10 had not been added was set at 100%. Thus, the inhibitory activity of each test compound was calculated.
The PDE10 inhibitory activity of the test compound was indicated with an IC50 value. […] The test compounds are shown in Table 3 (Table 3-1 and Table 3-2).
(TR-FRET usually uses a lanthanide donor and a delayed reading to cut background.)

Assay [2] has as its system apomorphine-induced stereotypy. The following applies: rats; according to U.S. Patent Application No. 2003/0032579; cited from earlier work.
The subject of assay [3] is haloperidol-induced catalepsy. The following applies: rat; according to U.S. Patent Application No. 2003/0032579; cited from earlier work.
Assay [4] concerns dopamine level in the rat brain. The following applies: according to U.S. Patent Application No. 2003/0032579; cited from earlier work.

T1 sequence (Q9Y233 whole entry): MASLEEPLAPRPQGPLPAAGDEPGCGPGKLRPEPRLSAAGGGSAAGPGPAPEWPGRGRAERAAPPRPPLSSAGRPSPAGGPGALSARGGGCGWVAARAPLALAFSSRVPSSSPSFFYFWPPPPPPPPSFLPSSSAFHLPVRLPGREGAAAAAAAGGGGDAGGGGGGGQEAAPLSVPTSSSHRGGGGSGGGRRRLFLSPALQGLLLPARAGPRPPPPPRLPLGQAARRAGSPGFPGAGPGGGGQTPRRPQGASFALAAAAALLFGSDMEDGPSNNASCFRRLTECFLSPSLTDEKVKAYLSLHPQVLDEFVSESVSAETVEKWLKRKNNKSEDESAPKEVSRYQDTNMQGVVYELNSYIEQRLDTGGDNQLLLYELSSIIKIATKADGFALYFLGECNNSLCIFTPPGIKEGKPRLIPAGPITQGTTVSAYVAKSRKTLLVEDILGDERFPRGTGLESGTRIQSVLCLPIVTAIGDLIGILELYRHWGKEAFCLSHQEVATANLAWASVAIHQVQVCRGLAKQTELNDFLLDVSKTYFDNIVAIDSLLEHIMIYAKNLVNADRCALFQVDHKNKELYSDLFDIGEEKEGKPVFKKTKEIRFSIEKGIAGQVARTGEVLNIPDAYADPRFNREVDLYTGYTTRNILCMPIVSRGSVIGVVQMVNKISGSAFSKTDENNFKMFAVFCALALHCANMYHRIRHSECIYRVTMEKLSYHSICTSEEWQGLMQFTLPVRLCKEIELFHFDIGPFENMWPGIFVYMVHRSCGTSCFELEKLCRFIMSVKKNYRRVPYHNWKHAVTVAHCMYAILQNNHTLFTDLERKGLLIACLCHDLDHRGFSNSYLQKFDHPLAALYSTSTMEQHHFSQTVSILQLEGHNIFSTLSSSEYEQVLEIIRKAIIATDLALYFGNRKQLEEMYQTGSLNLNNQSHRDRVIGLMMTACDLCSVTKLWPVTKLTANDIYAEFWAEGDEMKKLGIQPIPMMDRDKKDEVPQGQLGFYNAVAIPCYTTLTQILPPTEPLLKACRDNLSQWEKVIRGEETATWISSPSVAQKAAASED

`CCOCCc1sc(-c2cnn(C)c2C(=O)NC2CCn3nc(-c4ccccc4)nc3C2)nc1C` (stereo not shown) [Example 5.11, 4-(5-(2-ethoxyethyl)-4-methylthiazol-2-yl)-1-methyl-N-(2-phenyl-5,6,7,8-tetrahydro-[1,2,4]triazolo[1,5-a]pyridin-7-yl)-1H-pyrazole-5-carboxamide] came in with an IC50 in assay [1] of 5 to 100 nM.
In assay [1], `Cc1cc(C)nc(-c2cnn(C)c2C(=O)Nc2ccn3nc(N4CC[C@H](F)C4)nc3c2)c1` [Example 4.20, (S)-4-(4,6-dimethylpyridin-2-yl)-N-(2-(3-fluoropyrrolidin-1-yl)-[1,2,4]triazolo[1,5-a]pyridin-7-yl)-1-methyl-1H-pyrazole-5-carboxamide] returned an IC50 of under 5 nM.
Same read-out and setting: for `COC[C@H]1CCCN1c1nc2n(n1)CCC(NC(=O)c1c(-c3nc(C(F)F)cs3)cnn1C)C2` (stereo partly drawn) [Example 5.16, 4-(4-(difluoromethyl)thiazol-2-yl)-N-(2-((R)-2-(methoxymethyl)pyrrolidin-1-yl)-5,6,7,8-tetrahydro-[1,2,4]triazolo[1,5-a]pyridin-7-yl)-1-methyl-1H-pyrazole-5-carboxamide] the value was 5 to 100 nM; for `C[C@H]1CCCN1c1nc2cc(NC(=O)c3c(-c4nc(C(F)F)c(Cl)s4)cnn3C)ccn2n1` [Example 4.2, (S)-4-(5-chloro-4-(difluoromethyl)thiazol-2-yl)-1-methyl-N-(2-(2-methylpyrrolidin-1-yl)-[1,2,4]triazolo[1,5-a]pyridin-7-yl)-1H-pyrazole-5-carboxamide], under 5 nM; for `Cn1ncc(-c2nc(C(C)(C)C)cs2)c1C(=O)NC1CCn2cc(-c3ccccc3)nc2C1` (stereo not shown) [Example 2.27, 4-(4-(tert-butyl)thiazol-2-yl)-1-methyl-N-(2-phenyl-5,6,7,8-tetrahydroimidazo[1,2-a]pyridin-7-yl)-1H-pyrazole-5-carboxamide], 5 to 100 nM.
The same measure, in the same setting: with `Cc1cccnc1-c1cnn(C)c1C(=O)Nc1cc2nc(-c3ccccc3)nn2cc1F` [Example 3.1, N-(6-fluoro-2-phenyl-[1,2,4]triazolo[1,5-a]pyridin-7-yl)-1-methyl-4-(3-methylpyridin-2-yl)-1H-pyrazole-5-carboxamide] the figure was under 5 nM; with `Cc1cccnc1-c1cnn(C)c1C(=O)NC1CCn2nc(-c3ccccc3)nc2C1` (stereo not shown) [Example 5.22, 1-methyl-4-(3-methylpyridin-2-yl)-N-(2-phenyl-5,6,7,8-tetrahydro-[1,2,4]triazolo[1,5-a]pyridin-7-yl)-1H-pyrazole-5-carboxamide], 5 to 100 nM.
With `Cc1ccnc(-c2cnn(C)c2C(=O)NC2CCn3nc(-c4ccccc4)nc3C2)c1` (stereo not shown) [Example 5.20, 1-methyl-4-(4-methylpyridin-2-yl)-N-(2-phenyl-5,6,7,8-tetrahydro-[1,2,4]triazolo[1,5-a]pyridin-7-yl)-1H-pyrazole-5-carboxamide], the IC50 in assay [1] lay within 5 to 100 nM.
Molecule `Cc1cccc(-c2cnn(C)c2C(=O)NC2CCn3nc(-c4ccccc4)nc3C2)n1` (stereo not shown) [Example 5.19, 1-methyl-4-(6-methylpyridin-2-yl)-N-(2-phenyl-5,6,7,8-tetrahydro-[1,2,4]triazolo[1,5-a]pyridin-7-yl)-1H-pyrazole-5-carboxamide] yielded an IC50 in assay [1] of 5 to 100 nM.
On the same count and under the same terms, for `COc1cc(-c2cnn(C)c2C(=O)Nc2cc3nc(-c4ccccc4)nn3cc2F)nc(OC)n1` [Example 3.40, 4-(2,6-dimethoxypyrimidin-4-yl)-N-(6-fluoro-2-phenyl-[1,2,4]triazolo[1,5-a]pyridin-7-yl)-1-methyl-1H-pyrazole-5-carboxamide] the value was under 5 nM.
Still for that read-out and setting: with `Cn1ncc(-c2nc(C(F)F)cs2)c1C(=O)NC1CCn2cc(-c3cccc(F)c3)nc2C1` (stereo not shown) [Example 2.20, 4-(4-(difluoromethyl)thiazol-2-yl)-N-(2-(3-fluorophenyl)-5,6,7,8-tetrahydroimidazo[1,2-a]pyridin-7-yl)-1-methyl-1H-pyrazole-5-carboxamide] the figure was under 5 nM; with `Cn1ncc(-c2nc(C(F)F)cs2)c1C(=O)NC1CCn2nc(-c3cccc(F)c3)nc2C1` (stereo not shown) [Example 5.33, 4-(4-(difluoromethyl)thiazol-2-yl)-N-(2-(3-fluorophenyl)-5,6,7,8-tetrahydro-[1,2,4]triazolo[1,5-a]pyridin-7-yl)-1-methyl-1H-pyrazole-5-carboxamide], 5 to 100 nM.
The same measure, in the same setting: for `Cc1cncc(-c2cnn(C)c2C(=O)NC2CCn3cc(-c4cccc(F)c4)nc3C2)n1` (stereo not shown) [Example 2.24, N-(2-(3-fluorophenyl)-5,6,7,8-tetrahydroimidazo[1,2-a]pyridin-7-yl)-1-methyl-4-(6-methylpyrazin-2-yl)-1H-pyrazole-5-carboxamide] the value was 5 to 100 nM; for `Cc1ccc(-c2cnn(C)c2C(=O)NC2CCn3nc(-c4ccccc4)nc3C2)nc1` (stereo not shown) [Example 5.26, 1-methyl-4-(5-methylpyridin-2-yl)-N-(2-phenyl-5,6,7,8-tetrahydro-[1,2,4]triazolo[1,5-a]pyridin-7-yl)-1H-pyrazole-5-carboxamide], 5 to 100 nM.
The molecule `Cc1nc(-c2cnn(C)c2C(=O)NC2CCn3nc(-c4ccccc4)nc3C2)c(C(C)O)s1` (stereo not shown) [Example 5.31, 4-(5-(1-hydroxyethyl)-2-methylthiazol-4-yl)-1-methyl-N-(2-phenyl-5,6,7,8-tetrahydro-[1,2,4]triazolo[1,5-a]pyridin-7-yl)-1H-pyrazole-5-carboxamide] returned an IC50 in assay [1] of 5 to 100 nM.
As to `COc1ccc(Cc2nccc3cc(OC)c(OC)cc23)cc1OC` [papaverine], the apomorphine-induced stereotypy result in assay [2] is “decreases”. In assay [3], the haloperidol-induced catalepsy entry is recorded as “increases”. Moreover, in assay [4], the “dopamine level in the rat brain” value was “decreases”.
For the molecule `Cc1ccc(-c2cnn(C)c2C(=O)NC2CCn3cc(-c4ccccc4)nc3C2)nc1` (stereo not shown) [Example 2.21, 1-methyl-4-(5-methylpyridin-2-yl)-N-(2-phenyl-5,6,7,8-tetrahydroimidazo[1,2-a]pyridin-7-yl)-1H-pyrazole-5-carboxamide], in assay [1], the IC50 is 5 to 100 nM.
The same measure, in the same setting: with `Cn1ncc(-c2nc(C(F)F)c(Cl)s2)c1C(=O)NC1CCn2nc(-c3ccc(F)cc3)nc2C1` (stereo not shown) [Example 5.3, 4-(5-chloro-4-(difluoromethyl)thiazol-2-yl)-N-(2-(4-fluorophenyl)-5,6,7,8-tetrahydro-[1,2,4]triazolo[1,5-a]pyridin-7-yl)-1-methyl-1H-pyrazole-5-carboxamide] the figure was under 5 nM; with `Cn1ncc(-c2cccc(C#N)n2)c1C(=O)NC1CCn2nc(-c3ccccc3)nc2C1` (stereo not shown) [Example 5.40, 4-(6-cyanopyridin-2-yl)-1-methyl-N-(2-phenyl-5,6,7,8-tetrahydro-[1,2,4]triazolo[1,5-a]pyridin-7-yl)-1H-pyrazole-5-carboxamide], 5 to 100 nM.
Same read-out and setting: with `Cn1ncc(-c2nc(C#N)cs2)c1C(=O)NC1CCn2nc(-c3ccc(F)cc3)nc2C1` (stereo not shown) [Example 5.41, 4-(4-cyanothiazol-2-yl)-N-(2-(4-fluorophenyl)-5,6,7,8-tetrahydro-[1,2,4]triazolo[1,5-a]pyridin-7-yl)-1-methyl-1H-pyrazole-5-carboxamide] the figure was 5 to 100 nM.

In general, IC50 refers to the concentration that gives 50% inhibition. Higher therefore signals lower potency.
